The EC50 is the concentration giving half of the maximal effect.

Among the data in patent US20050075375A1 (priority 2003, published 2005) are EC50 values, retold here.

One test relates to monocistronic NK5.1 HCV replicon in Huh7 cells. As to the kind of experiment: HCV replicon assay, monocistronic replicon cell line. The format is cell-based, hepatitis C virus. Particulars: Hepatitis C virus, Huh-7, 72 h; Table 1; monocistronic replicon in Huh7 cells, 3 days incubation, HCV RNA/GAPDH RNA by TaqMan RT-PCR; read-out: Mono EC50 Median. The essentials: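 EC50 derives from the HCV RNA/GAPDH RNA ratio by one-step TaqMan RT-PCR, relative to DMSO-only wells. Compounds (six half-log concentrations, 0.6% DMSO) were incubated 3 days at 37 °C with NK5.1 monocistronic replicon Huh7 cells plated a day earlier.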
On the technique in general: Replicon systems follow genome replication, usually without infectious particles.
On to `COc1cccnc1-c1noc(-c2cc(Br)ccc2O)n1` [Compound 249, 4-Bromo-2-[3-(3-methoxy-pyridin-2-yl)-[1,2,4]oxadiazol-5-yl]-phenol], for which the EC50 worked out at 0.76 µM.
Still for that read-out and setting: with `COc1ccc(O)c(-c2ccn(-c3ncccc3C(=O)N3CCCCC3)n2)c1` [Compound 104, {2-[3-(2-Hydroxy-5-methoxy-phenyl)-pyrazol-1-yl]-pyridin-3-yl}-piperidin-1-yl-methanone] the figure was > 32 µM.
As to `COc1ccc(OC)c(-c2nc(-c3ncccc3C)no2)c1` [Compound 178, 2-[5-(2,5-Dimethoxy-phenyl)-[1,2,4]oxadiazol-3-yl]-3-methyl-pyridine], the concentration giving a half-maximal response (EC50) was > 32 µM.
As to `CCOC(=O)c1cc(-c2ccc3ccccc3c2)nn1-c1ncccc1C(F)(F)F` [Compound 68], the 50% effective concentration (EC50) was 12 µM.
On the same count and under the same terms, next, `O=[N+]([O-])c1ccc(O)c(-c2nc(-c3nccc4ccccc34)no2)c1` [Compound 195, 2-(3-Isoquinolin-1-yl-[1,2,4]oxadiazol-5-yl)-4-nitro-phenol]: > 32 µM; `O=C(O)c1cc(-c2ccc3ccccc3c2)n(-c2ncccc2C(F)(F)F)n1` [Compound 79, 5-Naphthalen-2-yl-1-(3-trifluoromethyl-pyridin-2-yl)-1H-pyrazole-3-carboxylic acid]: > 32 µM; `O=[N+]([O-])c1ccc(Cl)c(-c2nc(-c3ccccn3)no2)c1` [Compound 173, 2-[5-(2-Chloro-5-nitro-phenyl)-[1,2,4]oxadiazol-3-yl]-pyridine]: 3.8 µM.
Turning to `COc1ccc(-c2nc(-c3ncccc3C(F)(F)F)no2)c(O)c1` [Compound 211, 5-Methoxy-2-[3-(3-trifluoromethyl-pyridin-2-yl)-[1,2,4]oxadiazol-5-yl]-phenol], the EC50 turned out to be 11 µM.
On the same count and under the same terms, next, `COc1ccc(-c2ccn(-c3ncccc3C(F)(F)F)n2)c(OCc2ccccc2)c1` [Compound 90]: 4.4 µM; `Oc1ccc2ccccc2c1-c1nc(-c2ncccc2-c2ccccc2)no1` [Compound 229, 1-[3-(3-Phenyl-pyridin-2-yl)-[1,2,4]oxadiazol-5-yl]-naphthalen-2-ol]: > 10 µM.
On the same count and under the same terms, next, `COc1cccc(-c2nc(-c3ncccc3C)no2)c1O` [Compound 184, 2-Methoxy-6-[3-(3-methyl-pyridin-2-yl)-[1,2,4]oxadiazol-5-yl]-phenol]: 0.68 µM.
Same read-out and setting: with `Oc1ccccc1-c1ccn(-c2ncccc2C(F)(F)F)n1` [Compound 42, 2-[1-(3-Trifluoromethyl-pyridin-2-yl)-1H-pyrazol-3-yl]-phenol] the figure was 6 µM; with `O=[N+]([O-])c1ccc(Cl)c(-c2nc(-c3ccc(C(F)(F)F)cn3)no2)c1` [Compound 226, 2-[5-(2-Chloro-5-nitro-phenyl)-[1,2,4]oxadiazol-3-yl]-5-trifluoromethyl-pyridine], 4.3 µM; with `Cc1ccc(O)c(-c2nc(-c3ncccc3C)no2)c1` [Compound 192, 4-Methyl-2-[3-(3-methyl-pyridin-2-yl)-[1,2,4]oxadiazol-5-yl]-phenol], > 32 µM.

Staying with this test, now noted: Hepatitis C virus, Huh-7, 72 h; table T3 (compounds 471-640); monocistronic replicon in Huh7 cells, 3 days incubation, HCV RNA/GAPDH RNA by TaqMan RT-PCR; read-out: Mono EC50 Median.
For `COc1ccc(F)c(-c2nc(-c3cnccc3C(F)(F)F)n[nH]2)c1` [Compound 481, 3-[5-(2-Fluoro-5-methoxy-phenyl)-1H-[1,2,4]triazol-3-yl]-4-trifluoromethyl-pyridine], the 50% effective concentration (EC50) was > 32 µM.
Take `O=[N+]([O-])c1cccc(-c2nc(-c3ccc(C(F)(F)F)cn3)n[nH]2)c1` [Compound 520, 2-[5-(3-Nitro-phenyl)-1H-[1,2,4]triazol-3-yl]-5-trifluoromethyl-pyridine]: the concentration giving a half-maximal response (EC50) was > 19 µM.
Take `Oc1ccc(Cl)cc1-c1nc(-c2ncccc2Br)n[nH]1` [Compound 488, 2-[5-(3-Bromo-pyridin-2-yl)-2H-[1,2,4]triazol-3-yl]-4-Chloro-phenol]: the EC50 was found to be 2.7 µM.
On to `Oc1ccc(F)cc1-c1nc(-c2ncccc2C(F)(F)F)n[nH]1` [Compound 533, 4-Fluoro-2-[5-(3-trifluoromethyl-pyridin-2-yl)-2H-[1,2,4]triazol-3-yl]-phenol], for which the EC50 is > 19 µM.
Same read-out and setting: next, `Cn1nc(-c2ccccn2)nc1-c1c(O)ccc2ccccc12` [Compound 605, 1-(2-methyl-5-Pyridin-2-yl-2H-[1,2,4]triazol-3-yl)-naphthalen-2-ol]: 9 µM; `Clc1ccccc1-c1nc(-c2ccccn2)n[nH]1` [Compound 472, 2-[5-(2-Chloro-phenyl)-1H-[l,2,4]triazol-3-yl]-pyridine]: > 32 µM; `Oc1ccc(Cl)cc1-c1nc(-c2ncccn2)n[nH]1` [Compound 563, 4-Chloro-2-(5-pyrimidin-2-yl-2H-[1,2,4]triazol-3-yl)-phenol]: 6.4 µM.
The same measure, in the same setting: next, `Cc1cccnc1-c1n[nH]c(-c2cccc(Br)c2)n1` [Compound 505, 2-[5-(3-Bromo-phenyl)-1H-[1,2,4]triazol-3-yl]-3-methyl-pyridine]: 4 µM.
As for `Oc1ccccc1-c1ncn(-c2ccccn2)n1` [Compound 629, 2-(1-Pyridin-2-yl-1H-[1,2,4]triazol-3-yl)-phenol], the half-maximal effective concentration (EC50) was determined as 16 µM.
`Cc1cccnc1-c1n[nH]c(-c2cc(Cl)cc(Br)c2O)n1` [Compound 624, 4-Chloro-6-bromo-2-[5-(3-methyl-pyridin-2-yl)-2H-[1,2,4]triazol-3-yl]-phenol]: the EC50 was determined as 2.2 µM.
Turning to `Fc1cc(Br)ccc1-c1nc(-c2ncccc2C(F)(F)F)n[nH]1` [Compound 552, 2-[5-(4-Bromo-2-fluoro-phenyl)-1H-[1,2,4]triazol-3-yl]-3-trifluoromethyl-pyridine], the EC50 was > 19 µM.

The test is the same for the next values; noted with them: Hepatitis C virus, Huh-7; monocistronic NK5.1 HCV replicon in Huh7 cells; median value; read-out: Mono EC50 Median.
Turning to `Oc1ccc(O)c(-c2nc(-c3cnccc3C(F)(F)F)n[nH]2)c1` [Compound 426, 4-Hydroxy-2-[5-(4-trifluoromethyl-pyridin-3-yl)-2H-[1,2,4]triazol-3-yl]-phenol], the EC50 came out at 12 µM.
On the same count and under the same terms, with `COc1cccnc1-c1noc(-c2cc(Br)ccc2O)n1` [Compound 249, 4-Bromo-2-[3-(3-methoxy-pyridin-2-yl)-[1,2,4]oxadiazol-5-yl]-phenol] the figure was 0.76 µM; with `Cc1ccc(O)c(-c2nc(-c3cccc(C)n3)n[nH]2)c1` [Compound 400, 4-Methyl-2-(5-(6-methyl-pyridin-2-yl)-2H-[1,2,4]triazol-3-yl)-phenol], > 19 µM.
As for `Cc1cccnc1-c1noc(-c2ccc(NC(=O)OC(C)(C)C)cc2O)n1` [Compound 276, {3-Hydroxy-4-[3-(3-methyl-pyridin-2-yl)-[1,2,4]oxadiazol-5-yl]-phenyl}-carbamic acid tert-butyl ester], the EC50 came out at 0.7 µM.
Consider `COc1ccc(-c2nc(-c3ccccn3)n[nH]2)c(O)c1` [Compound 363, 5-Methoxy-2-(5-pyridin-2-yl-2H-[1,2,4]triazol-3-yl)-phenol], for which the EC50 was > 19 µM.
Consider `COc1ccc(-c2nc(-c3ncccc3Br)no2)c(O)c1` [Compound 259, 2-[3-(3-Bromo-pyridin-2-yl)-[1,2,4]oxadiazol-5-yl]-5-methoxy-phenol], for which the EC50 is 2.5 µM.
The same measure, in the same setting: with `COc1ccc(-c2nc(-c3ccc(C(F)(F)F)cn3)no2)c(O)c1OC` [Compound 265, 2,3-Dimethoxy-6-[3-(5-trifluoromethyl-pyridin-2-yl)-[1,2,4]oxadiazol-5-yl]-phenol] the figure was 28.5 µM.
Still for that read-out and setting: next, `Oc1ccccc1-c1nnc(-c2ccccc2C(F)(F)F)o1` [Compound 320, 2-[5-(2-Trifluoromethyl-phenyl)-[1,3,4]oxadiazol-2-yl]-phenol]: > 32 µM.
As to `O=[N+]([O-])c1ccccc1-c1nnc(-c2c(O)ccc3ccccc23)o1` [Compound 311, 1-[5-(2-Nitro-phenyl)-[1,3,4]oxadiazol-2-yl]-naphthalen-2-ol], the EC50 was 4 µM.
Still for that read-out and setting: next, `COc1ccc(-c2nc(-c3cccc(C)n3)n[nH]2)c(O)c1` [Compound 401, 5-Methoxy-2-(5-(6-methyl-pyridin-2-yl)-2H-[1,2,4]triazol-3-yl)-phenol]: > 19 µM; `Cc1cccc(-c2n[nH]c(-c3c(Cl)cccc3Cl)n2)n1` [Compound 467, 2-[5-(2,6-Dichloro-phenyl)-1H-[1,2,4]triazol-3-yl]-6-methyl-pyridine]: > 32 µM; `COc1ccc(-c2nc(-c3ncccc3C(F)(F)F)no2)c(O)c1` [Compound 211, 5-Methoxy-2-[3-(3-trifluoromethyl-pyridin-2-yl)-[1,2,4]oxadiazol-5-yl]-phenol]: 11 µM.
On the same count and under the same terms, next, `Cc1cccnc1-c1n[nH]c(-c2cc(Cl)ccc2O)n1` [Compound 445, 4-Chloro-2-(5-(3-methyl-pyridin-2-yl)-2H-[1,2,4]triazol-3-yl)-phenol]: 2.9 µM; `FC(F)(F)c1ccncc1-c1n[nH]c(-c2ccc(Br)cc2)n1` [Compound 430, 3-[5-(4-Bromo-phenyl)-1H-[1,2,4]triazol-3-yl]-4-trifluoromethyl-pyridine]: > 19 µM.
The same measure, in the same setting: next, `Oc1ccc2ccccc2c1-c1nc(-c2ncccc2-c2ccccc2)no1` [Compound 229, 1-[3-(3-Phenyl-pyridin-2-yl)-[1,2,4]oxadiazol-5-yl]-naphthalen-2-ol]: > 10 µM; `O=[N+]([O-])c1ccc(O)c(-c2nc(-c3nccc4ccccc34)n[nH]2)c1` [Compound 368, 4-Nitro-2-(5-isoquinolin-1-yl-2H-[1,2,4]triazol-3-yl)-phenol]: > 32 µM.
For the compound `Oc1ccc(Br)cc1-c1nc(-c2cnccc2C(F)(F)F)n[nH]1` [Compound 419, 4-Bromo-2-[5-(4-trifluoromethyl-pyridin-3-yl)-2H-[1,2,4]triazol-3-yl]-phenol], the concentration for a half-maximal effect (EC50) was found to be 12 µM.
Regarding `O=[N+]([O-])c1ccc(Cl)c(-c2nc(-c3ccc(C(F)(F)F)cn3)no2)c1` [Compound 226, 2-[5-(2-Chloro-5-nitro-phenyl)-[1,2,4]oxadiazol-3-yl]-5-trifluoromethyl-pyridine], the EC50 is 4.3 µM.
On the same count and under the same terms, next, `O=[N+]([O-])c1ccc(O)c(-c2nc(-c3ccccn3)n[nH]2)c1` [Compound 352, 4-Nitro-2-(5-pyridin-2-yl-2H-[1,2,4]triazol-3-yl)-phenol]: 14 µM.
Regarding `COc1cccc(-c2nc(-c3ncccc3Br)no2)c1O` [Compound 257, 2-[3-(3-Bromo-pyridin-2-yl)-[1,2,4]oxadiazol-5-yl]-6-methoxy-phenol], the EC50 was > 32 µM.
Same read-out and setting: next, `COc1cccc(-c2nc(-c3ncccc3C)n[nH]2)c1O` [Compound 453, 6-Methoxy-2-(5-(3-methyl-pyridin-2-yl)-2H-[1,2,4]triazol-3-yl)-phenol]: 21 µM.
